Measurements reported in patent US11331364B2, “Use for JNK inhibitor molecules for treatment of various diseases” (Xigen Inflammation Ltd., priority 2014, dated 2022).
Square brackets hold non-standard residues; d marks the D form. Peptide text beside a SMILES is read from it.

Experiments:
human whole blood = assay: PMA+ionomycin-induced cytokine release in human whole blood; type: cell-based; details: 1, 3, 10 μM; 4 hours
Description: FIG. 19 JNK inhibition and IL-2 release in human whole blood. The JNK inhibitor with SEQ ID NO: 172 was added at three different concentrations, namely 1, 3 and 10 μM 1 h before whole blood stimulation with PMA+ionomycin (25/700 ng/mL, 50/800 ng/mL and 50/1000 ng/mL) for 4 hours.
FIG. 20 JNK inhibition and IFN-γ release in human whole blood. The JNK inhibitor with SEQ ID NO: 172 was added at three different concentrations, namely 1, 3 and 10 μM 1 h before whole blood stimulation with PMA+ionomycin (25/700 ng/mL, 50/800 ng/mL and 50/1000 ng/mL) for 4 hours.
FIG. 21 JNK inhibition and TNF-α release in human whole blood. The JNK inhibitor with SEQ ID NO: 172 was added at three different concentrations, namely 1, 3 and 10 μM 1 h before whole blood stimulation with PMA+ionomycin (25/700 ng/mL, 50/800 ng/ml and 50/1000 ng/mL) for 4 hours.
Whole blood is collected from anesthetized rat or human healthy volunteers using a venipuncture connected to a pre-labeled vacuum tube containing sodium citrate. Tubes are gently mixed by inversion 7-8 times; and are then kept at RT until stimulation. JNK inhibitor of SEQ ID NO: 172 is prepared 6 times concentrated in PBS, and 30 μl/well of mix is added into 96-well plate. Whole blood is diluted by 1:2 in PBS and 120 μl of diluted blood is added in each well where either PBS alone or JNK inhibitor of SEQ ID NO: 172 has been previously added. Whole blood is incubated at 37° C.; 85 rpm (Stuart Orbital incubator SI500) for 60 min. Activators (LPS) are the prepared, 30 μl/well of LPS, 6 times concentrated. After 60 min incubation, LPS is added to the blood, blood is mixed by pipetting up and down, and then kept for 4 h under agitation (85 rpm), at 37° C. After the 4 h incubation, the plates are centrifuged at about 770 g, 4° C. for 15 min in a pre-cooled centrifuge. […] Cytokine (IL-6, IL-2, IFNγ and TNFα) were then measured using standard Elisa kits (e.g. from R&D Systems: DuoSet Elisas; or from BD Biosciences: BD Opteia Set Elisa). Results are expressed as pg/ml of supernatant of the measured cytokine. […]

hJNK1 = molecular target: T1, hJNK1 (Homo sapiens, UniProt P45983); assay: AlphaScreen assay, inhibition of JNK1 phosphorylation of c-Jun substrate; type: biochemical; details: in comparison to L-TAT-IB1; FIG. 4 (JNK1, JNK2, JNK3 AlphaScreen)
T1 construct: His; purchased Upstate 14-327
T1 sequence (P45983 1-384 isoform P45983-2): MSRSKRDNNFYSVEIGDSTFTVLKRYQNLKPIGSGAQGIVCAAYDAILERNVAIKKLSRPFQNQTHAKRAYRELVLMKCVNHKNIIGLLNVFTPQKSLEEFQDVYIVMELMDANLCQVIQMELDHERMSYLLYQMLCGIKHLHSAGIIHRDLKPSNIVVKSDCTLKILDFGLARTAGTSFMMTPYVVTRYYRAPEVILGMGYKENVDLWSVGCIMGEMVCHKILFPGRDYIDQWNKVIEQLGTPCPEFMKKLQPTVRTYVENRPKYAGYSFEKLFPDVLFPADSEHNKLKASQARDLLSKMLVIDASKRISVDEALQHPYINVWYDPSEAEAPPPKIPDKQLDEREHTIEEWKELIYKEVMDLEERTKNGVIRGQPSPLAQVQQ
Description: In the following a standard operating procedure will be set forth describing how the Inhibitory efficacy of JNK inhibitors according to the present invention was measured. The method allows to measure in vitro, in a non radioactive standardized assay, the ability of a candidate compound to decrease the phosphorylation of the c-Jun specific substrate by JNK. Moreover, it will be illustrated how to determine the inhibitory effect (IC50) and the Ki of a chosen compound for JNK. […] And a person skilled in the art will certainly understand how to adapt the below methods for his specific purposes and needs.
AlphaScreen Reagent and Plate: • His-JNK1 (ref 14-327, Upstate, 10 μg in 100 μl: concentration: 2.2 μM) 5 nM final • His-JNK2 (ref 14-329, Upstate, 10 μg in 100 μl: concentration: 2 μM) 5 nM final • His-JNK3 (ref 14-501, Upstate, 10 μg in 100 μl: concentration: 1.88 μM) 5 nM final • Anti-Phospho-cJun (ref 06-828, Upstate, lot DAM1503356, concentration: 44.5 μM) 10 nM final • Biotin-cJun (29-67): • sequence: Biotin—[…] […]
The bioluminescent energy transfer was read on the Fusion Alpha Plate reader (Perkin Elmer). […]

| Structure (SMILES) | PMA+ionomycin-induced IFN-γ release (human whole blood) | PMA+ionomycin-induced IL-2 release (human whole blood) | PMA+ionomycin-induced TNF-α release (human whole blood) | inhibitory capacity (hJNK1) |
| --- | --- | --- | --- | --- |
| CC(C)C[C@H](NC(=O)[C@H](CC(N)=O)NC(=O)[C@H](CC(C)C)NC(=O)[C@@H](NC(=O)[C@@H](C)NC(=O)[C@@H]1CCCN1C(=O)[C@H](CCCNC(=N)N)NC(=O)[C@@H](CCCCN)NC(=O)[C@@H]1CCCN1C(=O)[C@H](CCCNC(=N)N)NC(=O)[C@@H](CCCNC(=N)N)NC(=O)[C@H](CCCNC(=N)N)NC(=O)[C@H](CCCNC(=N)N)NC(=O)[C@H](CCC(N)=O)NC(=O)[C@@H](CCCNC(=N)N)NC(=O)[C@H](CCCNC(=N)N)NC(=O)[C@H](CCCCN)NC(=O)[C@H](CCCCN)NC(=O)[C@H](N)CCCNC(=N)N)[C@@H](C)O)C(=O)N[C@H](Cc1ccccc1)C(N)=O [SEQ ID NO: 172, rKKRrQRRrRPkRPaTLNLf] (H-[dR]KKR[dR]QRR[dR]RP[dK]RP[dA]TLNL[dF]-NH2; N-terminus assumed) | did reduce the PMA+ionomycin-induced IFN-γ release in a dose-dependent manner | did reduce the PMA+ionomycin-induced IL-2 release in a dose-dependent manner | did reduce the PMA+ionomycin-induced TNF-α release in a dose-dependent manner | – |
| CC(C)C[C@@H](NC(=O)[C@@H](Cc1ccccc1)NC(=O)[C@H]1CCCN1C(=O)[C@@H](CCC(N)=O)NC(=O)[C@H](NC(=O)[C@H]1CCCN1C(=O)[C@@H](CCCNC(=N)N)NC(=O)[C@@H](CO)NC(=O)[C@@H](CCC(N)=O)NC(=O)[C@H](N)CC(=O)O)C(C)C)C(=O)N[C@H](CC(N)=O)C(=O)N[C@H](CC(C)C)C(=O)N[C@@H](C(=O)N[C@@H](C(=O)N1CCC[C@@H]1C(=O)N[C@H](CCCNC(=N)N)C(=O)N[C@H](CCCCN)C(=O)N1CCC[C@@H]1C(=O)N[C@H](CCCNC(=N)N)C(=O)N1CCC[C@@H]1C(=O)N1CCC[C@@H]1C(=O)N[C@H](CCCNC(=N)N)C(=O)N[C@H](CCCNC(=N)N)C(=O)N[C@H](CCCNC(=N)N)C(=O)N[C@H](CCC(N)=O)C(=O)N[C@H](CCCNC(=N)N)C(=O)N[C@H](CCCNC(=N)N)C(=O)N[C@H](CCCCN)C(=O)N[C@H](CCCCN)C(=O)N[C@H](CCCNC(=N)N)C(=O)NCC(N)=O)[C@H](C)O)[C@H](C)O [SEQ ID NO: 197, dqsrpvqpflnlttprkprpprrrqrrkkrg, reference compound] (H-[dD][dQ][dS][dR][dP][dV][dQ][dP][dF][dL][dN][dL][dT][dT][dP][dR][dK][dP][dR][dP][dP][dR][dR][dR][dQ][dR][dR][dK][dK][dR]G-NH2) | – | – | – | significant decrease in inhibitory capacity |
